The values that follow come from the OligoGym collection.

HELM strings list units from the 5' end as sugar, base in round brackets, then linkage (d deoxyribose, r ribose, m 2'-O-methyl, p phosphodiester). Strings are as the collection lists them, not checked against the first reports. ss, as = sense and antisense strand; [fl2r] = 2'-fluoro
Also: test system not given here.

For the data set the following is noted: siRNA.
The substance “RNA1{r(G)p.r(C)p.m(U)p.r(G)p.r(A)p.r(G)p.r(G)p.r(A)p.r(A)p.r(A)p.r(G)p.r(G)p.m(G)p.r(A)p.m(C)p.r(A)p.r(U)p.r(C)p.r(U)p.r(T)p.r(T)}|RNA2{r(A)p.r(G)p.r(A)p.m(U)p.r(G)p.r(U)p.r(C)p.r(C)p.r(C)p.r(U)p.r(U)p.r(U)p.r(C)p.r(C)p.r(U)p.m(C)p.r(A)p.r(G)p.r(C)p.r(T)p.r(T)}$$$RNA1{StrandType:ss}|RNA2{StrandType:as}$” yielded a target mRNA knockdown of 76%.

“RNA1{r(G)p.r(C)p.r(A)p.r(A)p.r(C)p.r(U)p.r(C)p.r(A)p.r(U)p.r(G)p.r(G)p.r(U)p.r(U)p.r(C)p.r(A)p.r(U)p.r(G)p.r(C)p.r(U)p.r(T)p.r(T)}|RNA2{r(A)p.r(G)p.r(C)p.r(A)p.r(U)p.r(G)p.r(A)p.r(A)p.r(C)p.r(C)p.r(A)p.r(U)p.r(G)p.r(A)p.r(G)p.r(U)p.r(U)p.r(G)p.r(C)p.d(T)p.d(T)}$$$RNA1{StrandType:ss}|RNA2{StrandType:as}$”: the target mRNA knockdown was 40%.

In turn, “RNA1{r(G)p.r(C)p.r(A)p.r(A)p.r(G)p.r(U)p.r(G)p.r(G)p.r(C)p.r(A)p.r(A)p.r(G)p.r(A)p.r(G)p.r(G)p.r(A)p.r(U)p.m(U)p.r(A)p.r(T)p.r(T)}|RNA2{m(U)p.r(A)p.r(A)p.r(U)p.r(C)p.r(C)p.r(U)p.r(C)p.r(U)p.r(U)p.r(G)p.r(C)p.r(C)p.r(A)p.r(C)p.r(U)p.r(U)p.r(G)p.r(C)p.r(T)p.r(T)}$$$RNA1{StrandType:ss}|RNA2{StrandType:as}$” showed a target mRNA knockdown of 69%.

Turning to “RNA1{r(G)p.r(C)p.r(A)p.r(G)p.r(C)p.r(A)p.r(C)p.r(G)p.r(A)p.r(C)p.r(U)p.r(U)p.r(C)p.r(U)p.r(U)p.r(C)p.r(A)p.r(A)p.r(G)p.r(T)p.r(T)}|RNA2{[fl2r](C)p.[fl2r](U)p.[fl2r](U)p.r(G)p.r(A)p.r(A)p.r(G)p.r(A)p.r(A)p.r(G)p.[fl2r](U)p.[fl2r](C)p.r(G)p.[fl2r](U)p.r(G)p.[fl2r](C)p.[fl2r](U)p.r(G)p.[fl2r](C)p.r(T)p.r(T)}$$$RNA1{StrandType:ss}|RNA2{StrandType:as}$”, the target mRNA knockdown was determined as 83%.

“RNA1{r(G)p.r(C)p.r(A)p.r(G)p.r(C)p.r(A)p.r(C)p.r(G)p.r(A)p.r(C)p.r(U)p.r(U)p.r(C)p.r(U)p.r(U)p.r(C)p.r(A)p.r(A)p.r(G)p.r(T)p.r(T)}|RNA2{d(C)p.d(U)p.d(U)p.d(G)p.d(A)p.d(A)p.d(G)p.d(A)p.d(A)p.d(G)p.d(U)p.d(C)p.d(G)p.d(U)p.d(G)p.d(C)p.d(U)p.d(G)p.d(C)p.r(T)p.r(T)}$$$RNA1{StrandType:ss}|RNA2{StrandType:as}$”: the target mRNA knockdown amounted to 0%.

Turning to “RNA1{r(G)p.r(C)p.r(A)p.r(G)p.r(C)p.r(A)p.r(C)p.r(G)p.r(A)p.r(C)p.r(U)p.r(U)p.r(C)p.r(U)p.r(U)p.r(C)p.r(A)p.r(A)p.r(G)p.r(T)p.r(T)}|RNA2{m(C)p.m(U)p.m(U)p.m(G)p.m(A)p.m(A)p.m(G)p.m(A)p.m(A)p.m(G)p.m(U)p.m(C)p.m(G)p.m(U)p.m(G)p.m(C)p.m(U)p.m(G)p.m(C)p.r(T)p.r(T)}$$$RNA1{StrandType:ss}|RNA2{StrandType:as}$”, the target mRNA knockdown was 16%.

As to “RNA1{r(G)p.r(C)p.r(A)p.r(G)p.r(C)p.r(A)p.r(C)p.r(G)p.r(A)p.r(C)p.r(U)p.r(U)p.r(C)p.r(U)p.r(U)p.r(C)p.r(A)p.r(A)p.r(G)p.r(U)p.r(U)}|RNA2{r(C)p.[fl2r](U)p.r(U)p.r(G)p.r(A)p.r(A)p.r(G)p.r(A)p.r(A)p.r(G)p.r(U)p.r(C)p.r(G)p.r(U)p.r(G)p.r(C)p.r(U)p.r(G)p.r(C)p.r(U)p.r(U)}$$$RNA1{StrandType:ss}|RNA2{StrandType:as}$”, the target mRNA knockdown came to 73.8%.

The substance “RNA1{r(G)p.r(C)p.r(A)p.r(G)p.r(C)p.r(A)p.r(C)p.r(G)p.r(A)p.r(C)p.r(U)p.r(U)p.r(C)p.r(U)p.r(U)p.r(C)p.r(A)p.r(A)p.r(G)p.r(U)p.r(U)}|RNA2{r(C)p.m(U)p.r(U)p.r(G)p.r(A)p.r(A)p.r(G)p.r(A)p.r(A)p.r(G)p.r(U)p.r(C)p.r(G)p.r(U)p.r(G)p.r(C)p.r(U)p.r(G)p.r(C)p.r(U)p.r(U)}$$$RNA1{StrandType:ss}|RNA2{StrandType:as}$” had a target mRNA knockdown of 71.7%.

In turn, “RNA1{r(G)p.r(C)p.r(C)p.r(U)p.[fl2r](C)p.r(U)p.r(C)p.[fl2r](U)p.r(A)p.r(U)p.r(C)p.r(C)p.r(U)p.[fl2r](U)p.r(A)p.r(G)p.r(C)p.r(U)p.r(U)p.r(T)p.r(T)}|RNA2{r(A)p.r(A)p.r(G)p.r(C)p.[fl2r](U)p.r(A)p.r(A)p.r(G)p.r(G)p.r(A)p.[fl2r](U)p.r(A)p.r(G)p.r(A)p.r(G)p.r(A)p.r(G)p.r(G)p.r(C)p.r(T)p.r(T)}$$$RNA1{StrandType:ss}|RNA2{StrandType:as}$” came in with a target mRNA knockdown of 47%.

In the case of “RNA1{r(G)p.r(C)p.r(C)p.r(U)p.r(C)p.r(U)p.r(C)p.r(U)p.r(A)p.r(U)p.r(C)p.r(C)p.r(U)p.r(U)p.r(A)p.r(G)p.r(C)p.r(U)p.r(U)p.r(T)p.r(T)}|RNA2{r(A)p.r(A)p.r(G)p.r(C)p.[fl2r](U)p.r(A)p.r(A)p.r(G)p.r(G)p.r(A)p.[fl2r](U)p.r(A)p.r(G)p.r(A)p.r(G)p.r(A)p.r(G)p.r(G)p.r(C)p.r(T)p.r(T)}$$$RNA1{StrandType:ss}|RNA2{StrandType:as}$”, the target mRNA knockdown was 48%.

In turn, “RNA1{r(G)p.r(C)p.r(G)p.r(A)p.r(G)p.m(C)p.r(A)p.r(G)p.r(A)p.r(G)p.r(A)p.r(A)p.r(U)p.r(C)p.m(U)p.r(A)p.r(C)p.r(C)p.r(U)p.r(T)p.r(T)}|RNA2{r(A)p.r(G)p.r(G)p.m(U)p.r(A)p.r(G)p.r(A)p.r(U)p.r(U)p.r(C)p.r(U)p.r(C)p.m(U)p.r(G)p.r(C)p.r(U)p.r(C)p.r(G)p.r(C)p.r(T)p.r(T)}$$$RNA1{StrandType:ss}|RNA2{StrandType:as}$” gave a target mRNA knockdown of 90%.

The substance “RNA1{r(G)p.r(C)p.r(G)p.r(A)p.r(G)p.r(C)p.r(A)p.r(G)p.r(A)p.r(G)p.r(A)p.r(A)p.r(U)p.r(C)p.m(U)p.r(A)p.r(C)p.r(C)p.r(U)p.r(T)p.r(T)}|RNA2{r(A)p.r(G)p.r(G)p.m(U)p.r(A)p.r(G)p.r(A)p.r(U)p.r(U)p.r(C)p.r(U)p.r(C)p.r(U)p.r(G)p.r(C)p.r(U)p.r(C)p.r(G)p.r(C)p.r(T)p.r(T)}$$$RNA1{StrandType:ss}|RNA2{StrandType:as}$” displayed a target mRNA knockdown of 90%.

For the substance “RNA1{r(G)p.r(C)p.r(G)p.r(C)p.r(U)p.r(G)p.r(C)p.r(U)p.r(G)p.r(G)p.r(U)p.r(G)p.r(C)p.r(C)p.r(A)p.r(A)p.r(C)p.r(C)p.r(C)p.d(T)p.d(T)}|RNA2{r(G)p.r(G)p.r(G)p.r(U)p.r(U)p.r(G)p.r(G)p.r(C)p.r(A)p.r(C)p.r(C)p.r(A)p.r(G)p.r(C)p.r(A)p.r(G)p.r(C)p.r(G)p.r(C)p.d(T)p.d(T)}$$$RNA1{StrandType:ss}|RNA2{StrandType:as}$”, the target mRNA knockdown stood at 74%.

As for “RNA1{r(G)p.r(C)p.r(U)p.r(G)p.[fl2r](U)p.r(A)p.r(A)p.r(C)p.r(C)p.r(U)p.r(C)p.r(G)p.r(G)p.r(A)p.r(G)p.r(A)p.r(G)p.r(U)p.r(U)p.r(T)p.r(T)}|RNA2{r(A)p.r(A)p.r(C)p.r(U)p.r(C)p.r(U)p.r(C)p.r(C)p.r(G)p.r(A)p.r(G)p.r(G)p.r(U)p.[fl2r](U)p.r(A)p.r(C)p.r(A)p.r(G)p.r(C)p.r(T)p.r(T)}$$$RNA1{StrandType:ss}|RNA2{StrandType:as}$”, the target mRNA knockdown turned out to be 69%.

Substance “RNA1{r(G)p.r(C)p.r(U)p.r(G)p.r(A)p.r(A)p.r(C)p.[fl2r](U)p.r(A)p.r(G)p.r(U)p.r(C)p.r(G)p.r(A)p.r(A)p.r(A)p.r(G)p.r(A)p.r(A)p.r(T)p.r(T)}|RNA2{r(U)p.r(U)p.r(C)p.r(U)p.r(U)p.r(U)p.r(C)p.r(G)p.r(A)p.r(C)p.[fl2r](U)p.r(A)p.r(G)p.r(U)p.r(U)p.r(C)p.r(A)p.r(G)p.r(C)p.r(T)p.r(T)}$$$RNA1{StrandType:ss}|RNA2{StrandType:as}$” gave a target mRNA knockdown of 79%.

“RNA1{r(G)p.r(C)p.r(U)p.r(G)p.r(A)p.r(G)p.r(G)p.r(A)p.r(A)p.r(A)p.r(G)p.r(G)p.r(G)p.r(A)p.r(C)p.r(A)p.r(U)p.r(C)p.r(U)p.r(T)p.r(T)}|RNA2{r(A)p.r(G)p.m(A)p.m(U)p.r(G)p.r(U)p.r(C)p.r(C)p.r(C)p.r(U)p.r(U)p.r(U)p.r(C)p.r(C)p.r(U)p.r(C)p.r(A)p.r(G)p.r(C)p.r(T)p.r(T)}$$$RNA1{StrandType:ss}|RNA2{StrandType:as}$” showed a target mRNA knockdown of 78%.

“RNA1{r(G)p.r(C)p.r(U)p.r(U)p.m(U)p.m(A)p.r(A)p.r(G)p.r(G)p.r(A)p.r(A)p.r(C)p.m(U)p.r(G)p.r(G)p.r(A)p.r(A)p.r(G)p.r(G)p.r(T)p.r(T)}|RNA2{r(C)p.r(C)p.r(U)p.r(U)p.r(C)p.m(C)p.r(A)p.r(G)p.r(U)p.r(U)p.r(C)p.r(C)p.r(U)p.m(U)p.m(A)p.r(A)p.r(A)p.r(G)p.r(C)p.r(T)p.r(T)}$$$RNA1{StrandType:ss}|RNA2{StrandType:as}$”: the target mRNA knockdown was 72%.

In turn, “RNA1{r(G)p.r(C)p.r(U)p.r(U)p.m(U)p.r(A)p.r(A)p.r(G)p.r(G)p.r(A)p.r(A)p.r(C)p.m(U)p.r(G)p.r(G)p.r(A)p.r(A)p.r(G)p.r(G)p.r(T)p.r(T)}|RNA2{r(C)p.r(C)p.r(U)p.r(U)p.r(C)p.m(C)p.r(A)p.r(G)p.r(U)p.r(U)p.r(C)p.r(C)p.r(U)p.m(U)p.r(A)p.r(A)p.r(A)p.r(G)p.r(C)p.r(T)p.r(T)}$$$RNA1{StrandType:ss}|RNA2{StrandType:as}$” yielded a target mRNA knockdown of 37%.

“RNA1{r(G)p.r(C)p.r(U)p.r(U)p.r(C)p.r(G)p.r(G)p.r(A)p.r(A)p.r(A)p.r(C)p.[fl2r](U)p.[fl2r](G)p.r(G)p.r(A)p.[fl2r](C)p.r(A)p.r(U)p.r(C)p.r(T)p.r(T)}|RNA2{r(G)p.r(A)p.[fl2r](U)p.r(G)p.r(U)p.r(C)p.[fl2r](C)p.[fl2r](A)p.r(G)p.r(U)p.r(U)p.r(U)p.r(C)p.r(C)p.r(G)p.r(A)p.r(A)p.r(G)p.r(C)p.r(T)p.r(T)}$$$RNA1{StrandType:ss}|RNA2{StrandType:as}$” showed a target mRNA knockdown of 87%.

Take “RNA1{r(G)p.r(C)p.r(U)p.r(U)p.r(C)p.r(G)p.r(G)p.r(A)p.r(A)p.r(A)p.r(C)p.r(U)p.r(G)p.r(G)p.r(A)p.[fl2r](C)p.r(A)p.r(U)p.r(C)p.r(T)p.r(T)}|RNA2{r(G)p.r(A)p.[fl2r](U)p.r(G)p.r(U)p.r(C)p.[fl2r](C)p.r(A)p.r(G)p.r(U)p.r(U)p.r(U)p.r(C)p.r(C)p.r(G)p.r(A)p.r(A)p.r(G)p.r(C)p.r(T)p.r(T)}$$$RNA1{StrandType:ss}|RNA2{StrandType:as}$”: the target mRNA knockdown came to 90%.
